This passage reports EC50 results from patent US12344610B2, “APOL1 inhibitors and methods of use” (Maze Therapeutics, Inc., priority 2022, dated 2025).

Common to all, as to type: cell-based
Assay [1] deals with HEK293 clonal cell line overexpressing APOL1 G1. Kind of assay: APOL1 G1 HEK293 cell rescue assay (Example B3). To be noted: geometric mean of at least 2 runs, † = single run, ¥ = concentration at 50% rescue estimated (no sigmoidal curve). A digest of the protocol:
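HEK293 clonal line overexpressing APOL1 G1; EC50 is half-maximal reversal of APOL1-induced cell death. Values are the geometric mean of ≥2 runs on separate days, each run the average of duplicate wells. Where no sigmoidal curve could be fitted, the concentration giving 50% rescue was estimated.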

Assay [2] has as its system Trypanosoma brucei Lister 427 VSG221 with APOL1 G1 recombinant protein. Kind of assay: APOL1 G1 trypanosome cell rescue assay (Example B5). To be noted: geometric mean of at least 2 assay runs, † = single assay run. In a few lines:
(§1)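 Mature APOL1 (residues 28-398, E. coli-expressed, His-tag removed by TEV) was added as a 2 μg/mL solution to T. brucei Lister 427 VSG221 in modified HMI-9 medium at 250 cells/well, with duplicate 11-point 2-fold compound dilutions (0.4% DMSO). After 20 h at 37° C, 5% CO2, viability was read by CellTiter-Glo luminescence.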

The test system of assay [3] is Trypanosoma brucei Lister 427 VSG221 with APOL1 G2 recombinant protein. Kind of assay: APOL1 G2 trypanosome cell rescue assay (Example B5). As to conditions: geometric mean of at least 2 assay runs, † = single assay run. In a few lines:
as §1

Setting [4] is: Homo sapiens, HEK293, HEK293 clonal line overexpressing APOL1 G1.
The mark [5] stands for this setting: Trypanosoma brucei, 20 h, read-out: APOL1 G1 Trypanosome Rescue EC50, Trypanosoma brucei Lister 427 VSG221 with APOL1 G1 recombinant protein, 20 hours, CellTiter-Glo.
[6] abbreviates: Trypanosoma brucei, 20 h, read-out: APOL1 G2 Trypanosome Rescue EC50, Trypanosoma brucei Lister 427 VSG221 with APOL1 G2 recombinant protein, 20 hours, CellTiter-Glo.
The mark [7] stands for this setting: HEK293 clonal line overexpressing APOL1 G1.

Like-named read-outs stand apart in the source and are kept apart here.

As a reminder, the EC50 is the midpoint of the concentration-response curve. For `CC(C)(O)c1ncc(OCCN2CCC3(CC2)C(=O)Nc2ccc(Cl)cc23)cn1` [Compound 305, 5-chloro-1′-(2-{[2-(2-hydroxypropan-2-yl)pyrimidin-5-yl]oxy}ethyl)-1,2-dihydrospiro[indole-3,4′-piperidin]-2-one], the figures for the 50% effective concentration (EC50) in assay [1] (setting [4]), in assay [2] (setting [5]) and in assay [3] (setting [6]) were 172 nM, 265 nM and 80.4 nM, respectively.
For `O=C(c1ccc(OCCN2CCC3(CC2)C(=O)Nc2ccc(Cl)cc23)cc1F)N1CCS(=O)(=O)CC1` [Compound 232, 4-[4-(2-{5-chloro-2-oxo-1,2-dihydrospiro[indole-3,4′-piperidin]-1′-yl}ethoxy)-2-fluorobenzoyl]-1λ^6-thiomorpholine-1,1-dione], the EC50 in assay [1] (setting [4]) was 137 nM; in assay [2] (setting [5]) it was 157 nM; in assay [3] (setting [6]), 41.6 nM.
In the case of `C[C@]1(O)C[C@@H](N2C(=O)CCc3cc(OCCN4CCC5(CC4)C(=O)Nc4ccc(Cl)cc45)cnc32)C1` [Compound 275, 5-chloro-1′-[2-({7-oxo-8-[(cis)-3-hydroxy-3-methylcyclobutyl]-5,6,7,8-tetrahydro-1,8-naphthyridin-3-yl}oxy)ethyl]-1,2-dihydrospiro[indole-3,4′-piperidin]-2-one], the concentration for a half-maximal effect (EC50) in assay [1] (setting [4]) was 62.7 nM; in assay [2] (setting [5]) it was 73.6 nM; in assay [3] (setting [6]) it was 21.4 nM.
Take `CN(C)C(=O)C1(c2ccc(OCCN3CCC4(CC3)C(=O)Nc3ccc(C#N)cc34)cc2)COC1` [Compound 254, 3-[4-(2-{5-cyano-2-oxo-1,2-dihydrospiro[indole-3,4′-piperidin]-1′-yl}ethoxy)phenyl]-N,N-dimethyloxetane-3-carboxamide]: the half-maximal effective concentration (EC50) in assay [1] (setting [4]) is 2040 nM; in assay [2] (setting [5]) it was 951 nM; in assay [3] (setting [6]), 252 nM.
Take `C[C@@H](COc1ccc2c(cnn2C)c1)N1CCC2(CC1)C(=O)Nc1ccc(Cl)cc12` (single isomer, unassigned) [Compound 211]: the concentration for a half-maximal effect (EC50) is 380 nM in assay [1] (setting [4]), 527 nM in assay [2] (setting [5]) and 159 nM in assay [3] (setting [6]).
As to `Cn1c(=O)[nH]c2cc(OCCN3CCC4(CC3)C(=O)Nc3ccc(Cl)cc34)cnc21` [Compound 247, 5-chloro-1′-[2-({3-methyl-2-oxo-1H,2H,3H-imidazo[4,5-b]pyridin-6-yl}oxy)ethyl]-1,2-dihydrospiro[indole-3,4′-piperidin]-2-one], the half-maximal effective concentration (EC50) in assay [1] (setting [4]) was 270 nM; in assay [2] (setting [5]) it was 246 nM; in assay [3] (setting [6]) it was 81 nM.
On the same counts, the results for `NC(=O)c1ccc(OCCN2CCC3(CC2)C(=O)Nc2ccc(Cl)cc23)cc1C(F)F` [Compound 249, 4-(2-{5-chloro-2-oxo-1,2-dihydrospiro[indole-3,4′-piperidin]-1′-yl}ethoxy)-2-(difluoromethyl)benzamide] are 70.6 nM, 73.8 nM and 22.1 nM.
For `O=C1Nc2ccc(Cl)cc2C12CCN(CCOc1cnc(N3CC(O)C3)nc1)CC2` [Compound 301, 5-chloro-1′-(2-{[2-(3-hydroxyazetidin-1-yl)pyrimidin-5-yl]oxy}ethyl)-1,2-dihydrospiro[indole-3,4′-piperidin]-2-one], the values for the 50% effective concentration (EC50) in assay [1] (setting [4]), in assay [2] (setting [5]) and in assay [3] (setting [6]) were 190 nM, 447 nM and 134 nM, respectively.
As for `Cc1n[nH]cc1-c1ccc(OCCN2CCC3(CC2)C(=O)Nc2ccc(Cl)cc23)cc1` [Compound 244, 5-chloro-1′-{2-[4-(5-methyl-1H-pyrazol-4-yl)phenoxy]ethyl}-1,2-dihydrospiro[indole-3,4′-piperidin]-2-one], the values for the concentration for a half-maximal effect (EC50) in assay [1] (setting [4]), in assay [2] (setting [5]) and in assay [3] (setting [6]) were 189 nM, 151 nM and 49.3 nM, respectively.
On the same counts, the results for `CNC(=O)c1ccc(OCCN2CCC3(CC2)C(=O)Nc2ccc(Cl)cc23)cc1F` [Compound 229, 4-(2-{5-chloro-2-oxo-1,2-dihydrospiro[indole-3,4′-piperidin]-1′-yl}ethoxy)-2-fluoro-N-methylbenzamide] are 396 nM, 778 nM and 186 nM.
As to `O=C1Nc2ccc(Cl)cc2C12CCN(CCOc1cnc3c(N4CC(O)C4)nccc3c1)CC2` [Compound 314, 5-chloro-1′-(2-{[8-(3-hydroxyazetidin-1-yl)-1,7-naphthyridin-3-yl]oxy}ethyl)-1,2-dihydrospiro[indole-3,4′-piperidin]-2-one], the figures for the 50% effective concentration (EC50) in assay [1] (setting [4]), in assay [2] (setting [5]) and in assay [3] (setting [6]) were 53.2 nM, 34.9 nM and 11.5 nM, respectively.
On the same counts, the results for `O=C(c1c(F)cc(OCCN2CCC3(CC2)C(=O)Nc2ccc(Cl)cc23)cc1F)N1CCS(=O)(=O)CC1` [Compound 259, 4-[4-(2-{5-chloro-2-oxo-1,2-dihydrospiro[indole-3,4′-piperidin]-1′-yl}ethoxy)-2,6-difluorobenzoyl]-1λ^6-thiomorpholine-1,1-dione] are 92.5 nM, 92.2 nM and 25.5 nM.
For the molecule `CC(COc1ccc2c(c1)CCC(=O)N2C)N1CCC2(CC1)C(=O)Nc1ccc(Cl)cc12` (single isomer, unassigned) [Compound 200], the values for the EC50 in assay [1] (setting [7]), in assay [2] (setting [5]) and in assay [3] (setting [6]) were 203 nM, 192 nM and 72.4 nM, respectively.
For the molecule `CS(=O)(=O)c1ccc(OCCN2CCC3(CC2)C(=O)Nc2ccc(Cl)cc23)cc1C(F)CF` (single isomer, unassigned) [Compound 219, 5-chloro-1′-(2-{3-[(1R or 1S)-1,2-difluoroethyl]-4-methanesulfonylphenoxy}ethyl)-1,2-dihydrospiro[indole-3,4′-piperidin]-2-one], the concentration giving a half-maximal response (EC50) in assay [1] (setting [7]) was 116 nM; in assay [2] (read-out: APOL1 G1 Trypanosome Rescue EC50, Trypanosoma brucei Lister 427 VSG221 with APOL1 G1 recombinant protein, 20 hours, CellTiter-Glo), 39 nM; in assay [3] (read-out: APOL1 G2 Trypanosome Rescue EC50, Trypanosoma brucei Lister 427 VSG221 with APOL1 G2 recombinant protein, 20 hours, CellTiter-Glo) it was 10.5 nM.
With `CS(=O)(=O)NC1CN(C(=O)c2ccc(OCCN3CCC4(CC3)C(=O)Nc3ccc(Cl)cc34)cc2F)C1` [Compound 237, N-{1-[4-(2-{5-chloro-2-oxo-1,2-dihydrospiro[indole-3,4′-piperidin]-1′-yl}ethoxy)-2-fluorobenzoyl]azetidin-3-yl} methanesulfonamide], the half-maximal effective concentration (EC50) is more than 3250 nM in assay [1] (setting [4]), 196 nM in assay [2] (setting [5]) and 57.2 nM in assay [3] (setting [6]).
For `CS(=O)(=O)Nc1ccc(OCCN2CCC3(CC2)C(=O)Nc2ccc(Cl)cc23)cc1` [Compound 214, N-[4-(2-{5-chloro-2-oxo-1,2-dihydrospiro[indole-3,4′-piperidin]-1′-yl}ethoxy)phenyl]methanesulfonamide], the concentration for a half-maximal effect (EC50) in assay [1] (setting [4]) was 169 nM; in assay [2] (setting [5]), 430 nM; in assay [3] (setting [6]) it was 88.7 nM.
On the same counts, the results for `CN1C(=O)C2(CCN(CCOc3ccc(C4(S(C)(=O)=O)COC4)cc3)CC2)c2cc(C#N)ccc21` [Compound 251, 1′-{2-[4-(3-methanesulfonyloxetan-3-yl)phenoxy]ethyl}-1-methyl-2-oxo-1,2-dihydrospiro[indole-3,4′-piperidine]-5-carbonitrile] are approximately 323 nM, 1120 nM and 240 nM.
As to `N#Cc1ccc2c(c1)C1(CCN(CCOc3ccc(C(N)=O)c(F)c3)CC1)C(=O)N2` [Compound 238, 4-(2-{5-cyano-2-oxo-1,2-dihydrospiro[indole-3,4′-piperidin]-1′-yl}ethoxy)-2-fluorobenzamide], the EC50 is 244 nM in assay [1] (setting [4]), more than 4000 nM in assay [2] (setting [5]) and 763 nM in assay [3] (setting [6]).
As for `O=C(c1ccc(OCCN2CCC3(CC2)C(=O)Nc2ccc(Cl)cc23)cc1F)N1CCOCC1` [Compound 231, 5-chloro-1′-{2-[3-fluoro-4-(morpholine-4-carbonyl)phenoxy]ethyl}-1,2-dihydrospiro[indole-3,4′-piperidin]-2-one], the concentration for a half-maximal effect (EC50) in assay [1] (setting [4]) is 169 nM; in assay [2] (setting [5]) it was 231 nM; in assay [3] (setting [6]), 66.7 nM.
